Results published in PubChem BioAssay (NCI).
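Exposure lasted 48 hours, with cells grown in 96-well plates and compounds tested at five concentrations. TGI is the concentration that stops growth completely.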

Columns and labels:
Test in all cases: NCI-60 cell line screen, 48 h
[1] = test system: 786-0 renal
[2] = test system: A498 renal
[3] = test system: A549 NSCLC
[4] = test system: ACHN renal
[5] = test system: BT-549 breast
[6] = test system: COLO 205 colon
[7] = test system: EKVX NSCLC
[8] = test system: HCC-2998 colon
[9] = test system: HCT-116 colon
[10] = test system: HCT-15 colon
[11] = test system: HL-60(TB) leukemia
[12] = test system: HOP-62 NSCLC
[13] = test system: HS 578T breast
[14] = test system: HT29 colon
[15] = test system: IGROV1 ovarian
[16] = test system: K-562 leukemia
[17] = test system: KM12 colon
[18] = test system: LOX IMVI melanoma
[19] = test system: M14 melanoma
[20] = test system: MALME-3M melanoma
[21] = test system: MCF7 breast
[22] = test system: MDA-MB-231 breast
[23] = test system: MDA-MB-435
[24] = test system: MOLT-4 leukemia
[25] = test system: NCI-H23 lung
[26] = test system: NCI-H460 lung
[27] = test system: NCI-H522 lung
[28] = test system: NCI/ADR-RES ovarian
[29] = test system: OVCAR-3 ovarian
[30] = test system: OVCAR-5 ovarian
[31] = test system: OVCAR-8 ovarian
[32] = test system: PC-3 prostate
[33] = test system: RPMI-8226 leukemia
[34] = test system: SF-295 CNS
[35] = test system: SF-539 CNS
[36] = test system: SK-MEL-2 melanoma
[37] = test system: SK-MEL-28 melanoma
[38] = test system: SK-MEL-5 melanoma
[39] = test system: SN12C renal
[40] = test system: SNB-19 CNS
[41] = test system: SR leukemia
[42] = test system: SW-620 colon
[43] = test system: T-47D breast
[44] = test system: TK-10 renal
[45] = test system: U251 CNS
[46] = test system: UACC-257 melanoma
[47] = test system: UACC-62 melanoma
[48] = test system: UO-31 renal

In the case of `O=C1C=CC(=O)c2c(NCC3CC3)ccc(NCC3CC3)c21`, the TGI [1] is reported as greater than 100 µM, the TGI [2] is reported as greater than 100 µM and the TGI [3] is reported as greater than 100 µM. It also gave a TGI [4] greater than 100 µM, a TGI [5] greater than 100 µM and a TGI [6] of 41.4 µM. It also gave a TGI [7] greater than 100 µM, a TGI [8] greater than 100 µM and a TGI [9] greater than 100 µM. The TGI [10] was greater than 100 µM, the TGI [11] was 31.8 µM and the TGI [12] was greater than 100 µM. The TGI [13] was greater than 100 µM, the TGI [14] was 88.4 µM and the TGI [15] was greater than 100 µM. The TGI [16] was 53.9 µM, the TGI [17] was greater than 100 µM and the TGI [18] was 43 µM. For the same compound, the TGI [19] was 56.8 µM, the TGI [20] was 49.2 µM and the TGI [21] was 48.6 µM. The TGI [22] was greater than 100 µM, the TGI [23] was 44.8 µM and the TGI [24] was 44.9 µM. For the same compound, the TGI [25] was 89.4 µM, the TGI [26] was greater than 100 µM and the TGI [27] was 15.9 µM. It also gave a TGI [28] greater than 100 µM, a TGI [29] of 63.4 µM and a TGI [30] greater than 100 µM. For the same compound, the TGI [31] was greater than 100 µM, the TGI [32] was greater than 100 µM and the TGI [33] was 47.4 µM. It also gave a TGI [34] of 79.8 µM, a TGI [35] greater than 100 µM and a TGI [36] greater than 100 µM. For the same compound, the TGI [37] was 99.1 µM, the TGI [38] was 52 µM and the TGI [39] was greater than 100 µM. The TGI [40] was greater than 100 µM, the TGI [41] was greater than 100 µM and the TGI [42] was greater than 100 µM. For the same compound, the TGI [43] was 65.6 µM, the TGI [44] was greater than 100 µM and the TGI [45] was greater than 100 µM. The TGI [46] was 61.8 µM, the TGI [47] was 65.3 µM and the TGI [48] was greater than 100 µM.
